Values of other authors as cited in PMC5074076, “Novel minimal physiologically-based model for the prediction of passive tubular reabsorption and renal excretion clearance” (European Journal of Pharmaceutical Sciences, 2016).

Details: healthy subjects; plasma and urine data from same subjects; normalised for subject weight and body surface area where necessary; ref Table S2.1; cited from earlier work

| Structure (SMILES) | Overall weighted mean CLR |
| --- | --- |
| CCCC(=O)Nc1ccc(OCC(O)CNC(C)C)c(C(C)=O)c1 (stereo not shown) [Acebutolol] | 222.8 mL/min |
| CCN(CC)CCNC(=O)c1ccc(NC(C)=O)cc1 [Acecainide] | 226.7 mL/min |
| Nc1ncnc2c1ncn2CCOCP(=O)(O)O [Adefovir] | 200.4 mL/min |
| CN(C)CCc1c[nH]c2ccc(CS(=O)(=O)N3CCCC3)cc12 [Almotriptan] | 399.5 mL/min |
| NC12CC3CC(CC(C3)C1)C2 [Amantadine] | 219.2 mL/min |
| CC1(C)S[C@@H]2[C@H](NC(=O)[C@H](N)c3ccc(O)cc3)C(=O)N2[C@H]1C(=O)O [Amoxicillin] | 167.0 mL/min |
| CC1(C)S[C@@H]2[C@H](NC(=O)[C@H](NC(=O)c3cnc4cccnc4c3O)c3ccccc3)C(=O)N2[C@H]1C(=O)O [Apalcillin] | 29.0 mL/min |
| CC1(C)S[C@@H]2[C@H](NC(=O)[C@H](NC(=O)N3CCNC3=O)c3ccccc3)C(=O)N2[C@H]1C(=O)O [Azlocillin] | 83.3 mL/min |
| CC1(C)S[C@@H]2[C@H](NC(=O)Cc3ccccc3)C(=O)N2[C@H]1C(=O)O [Benzylpenicillin] | 316.8 mL/min |
| CC(C)NCC(O)COc1ccc(COCCOC(C)C)cc1 (stereo not shown) [Bisoprolol] | 157.0 mL/min |
| CC1(C)S[C@@H]2[C@H](NC(=O)C(C(=O)O)c3ccccc3)C(=O)N2[C@H]1C(=O)O (stereo partly shown) [Carbenicillin] | 127.0 mL/min |
| Cn1nnnc1SCC1=C(C(=O)O)N2C(=O)[C@@H](NC(=O)[C@H](O)c3ccccc3)[C@H]2SC1 [Cefamandole] | 162.3 mL/min |
| C=CC1=C(C(=O)O)N2C(=O)[C@@H](NC(=O)/C(=N\OCC(=O)O)c3csc(N)n3)[C@H]2SC1 [Cefixime] | 32.5 mL/min |
| CO[C@@]1(NC(=O)CSCC#N)C(=O)N2C(C(=O)O)=C(CSc3nnnn3C)CS[C@@H]21 [Cefmetazole] | 110.2 mL/min |
| CO/N=C(\C(=O)N[C@@H]1C(=O)N2C(C(=O)O)=C(CSc3nc(C)c(CC(=O)O)s3)CS[C@H]12)c1csc(N)n1 [Cefodizime] | 29.1 mL/min |
| O=C(O)C1=C(CSc2nnnn2CS(=O)(=O)O)CS[C@@H]2[C@H](NC(=O)[C@H](O)c3ccccc3)C(=O)N12 [Cefonicid] | 18.3 mL/min |
| NCc1ccccc1CC(=O)N[C@@H]1C(=O)N2C(C(=O)O)=C(CSc3nnnn3CC(=O)O)CS[C@H]12 [Ceforanide] | 46.8 mL/min |
| CO/N=C(\C(=O)N[C@@H]1C(=O)N2C(C(=O)O)=C(COC(C)=O)CS[C@H]12)c1csc(N)n1 [Cefotaxime] | 119.7 mL/min |
| CO[C@@]1(NC(=O)C2SC(=C(C(N)=O)C(=O)O)S2)C(=O)N2C(C(=O)O)=C(CSc3nnnn3C)CS[C@@H]21 (stereo partly shown) [Cefotetan] | 23.9 mL/min |
| CN(C)CCn1nnnc1SCC1=C(C(=O)O)N2C(=O)[C@@H](NC(=O)Cc3csc(N)n3)[C@H]2SC1 [Cefotiam] | 193.7 mL/min |
| CO/N=C(\C(=O)N[C@@H]1C(=O)N2C(C(=O)[O-])=C(C[n+]3cccc4c3CCC4)CS[C@H]12)c1csc(N)n1 [Cefpirome] | 97.5 mL/min |
| CC(C)(O/N=C(\C(=O)N[C@@H]1C(=O)N2C(C(=O)[O-])=C(C[n+]3ccccc3)CS[C@H]12)c1csc(N)n1)C(=O)O [Ceftazidime] | 98.0 mL/min |
| CO/N=C(\C(=O)N[C@@H]1C(=O)N2C(C(=O)O)=CCS[C@H]12)c1csc(N)n1 [Ceftizoxime] | 102.2 mL/min |
| CCN(CC)CCCC(C)Nc1ccnc2cc(Cl)ccc12 (stereo not shown) [Chloroquine] | 167.2 mL/min |

| Structure (SMILES) | Overall weighted mean CLR |
| --- | --- |
| NS(=O)(=O)c1cc(C2(O)NC(=O)c3ccccc32)ccc1Cl (stereo not shown) [Chlorthalidone] | 62.3 mL/min |
| CN/C(=N/CCSCc1nc[nH]c1C)NC#N [Cimetidine] | 417.0 mL/min |
| NC1CCN(c2c(F)cc3c(=O)c(C(=O)O)cn(C4CC4)c3c2Cl)C1 (stereo not shown) [Clinafloxacin] | 191.0 mL/min |
| CNCCCN1c2ccccc2CCc2ccccc21 [Desipramine] | 28.6 mL/min |
| C[C@@H](CN1CC(=O)NC(=O)C1)N1CC(=O)NC(=O)C1 [Dexrazoxane] | 133.3 mL/min |
| C[C@H]1O[C@@H](O[C@H]2[C@@H](O)C[C@H](O[C@H]3[C@@H](O)C[C@H](O[C@H]4CC[C@@]5(C)[C@H](CC[C@@H]6[C@@H]5C[C@@H](O)[C@]5(C)[C@@H](C7=CC(=O)OC7)CC[C@]65O)C4)O[C@@H]3C)O[C@@H]2C)C[C@H](O)[C@@H]1O [Digoxin] | 151.1 mL/min |
| COc1ccc([C@@H]2Sc3ccccc3N(CCN(C)C)C(=O)[C@@H]2OC(C)=O)cc1 [Diltiazem] | 48.0 mL/min |
| CCn1cc(C(=O)O)c(=O)c2cc(F)c(N3CCNCC3)nc21 [Enoxacin] | 256.7 mL/min |
| CSc1ccc(C(=O)c2[nH]c(=O)[nH]c2C)cc1 [Enoximone] | 3.4 mL/min |
| CCCn1c(=O)[nH]c(=O)c2[nH]cnc21 [Enprofylline] | 272.6 mL/min |
| CN1CCN(c2c(F)cc3c(=O)c(C(=O)O)cn(CCF)c3c2F)CC1 [Fleroxacin] | 67.5 mL/min |
| Cc1onc(-c2c(F)cccc2Cl)c1C(=O)N[C@@H]1C(=O)N2[C@@H]1SC(C)(C)[C@@H]2C(=O)O [Flucloxacillin] | 90.9 mL/min |
| CN[C@@H]1CCc2[nH]c3ccc(C(N)=O)cc3c2C1 [Frovatriptan] | 73.5 mL/min |
| COc1ccc2c3c1O[C@H]1C[C@@H](O)C=C[C@@]31CCN(C)C2 [Galantamine] | 57.7 mL/min |
| C[C@H]1NCc2cc(-c3ccc4c(=O)c(C(=O)O)cn(C5CC5)c4c3OC(F)F)ccc21 [Garenoxacin] | 41.8 mL/min |
| COc1c(N2CCNC(C)C2)c(F)cc2c(=O)c(C(=O)O)cn(C3CC3)c12 (stereo not shown) [Gatifloxacin] | 168.4 mL/min |
| COc1cc2ncnc(Nc3ccc(F)c(Cl)c3)c2cc1OCCCN1CCOCC1 [Gefitinib] | 8.6 mL/min |
| CO/N=C1\CN(c2nc3c(cc2F)c(=O)c(C(=O)O)cn3C2CC2)CC1CN (stereo not shown) [Gemifloxacin] | 176.8 mL/min |
| Nc1nnc(-c2cccc(Cl)c2Cl)c(N)n1 [Lamotrigine] | 2.5 mL/min |
| Nc1cccc2c1CN(C1CCC(=O)NC1=O)C2=O (stereo not shown) [Lenalidomide] | 190.4 mL/min |
| C[C@H]1COc2c(N3CCN(C)CC3)c(F)cc3c(=O)c(C(=O)O)cn1c23 [Levofloxacin] | 116.9 mL/min |
| CCn1cc(C(=O)O)c(=O)c2cc(F)c(N3CCNC(C)C3)c(F)c21 (stereo not shown) [Lomefloxacin] | 155.8 mL/min |
| O=C1Nc2ccc(Cl)cc2C(c2ccccc2Cl)=NC1O (stereo not shown) [Lorazepam] | 0.3 mL/min |
| CNC(C)Cc1ccc2c(c1)OCO2 (stereo not shown) [MDMA] | 215.0 mL/min |

| Structure (SMILES) | Overall weighted mean CLR |
| --- | --- |
| CC12CC3CC(C)(C1)CC(N)(C3)C2 [Memantine] | 117.1 mL/min |
| O=S(=O)(O)CCS [Mesna] | 265.8 mL/min |
| CO[C@@]1(NC(=O)C(C(=O)O)c2ccc(O)cc2)C(=O)N2C(C(=O)O)=C(CSc3nnnn3C)CO[C@@H]21 (stereo partly shown) [Moxalactam] | 69.5 mL/min |
| CCOc1ccc2ccccc2c1C(=O)N[C@@H]1C(=O)N2[C@@H]1SC(C)(C)[C@@H]2C(=O)O [Nafcillin] | 138.4 mL/min |
| CC1COc2c(N3CCN(C)CC3)c(F)cc3c(=O)c(C(=O)O)cn1c23 (stereo not shown) [Ofloxacin] | 184.4 mL/min |
| CCCc1nc(C(C)(C)O)c(C(=O)O)n1Cc1ccc(-c2ccccc2-c2nnn[nH]2)cc1 [Olmesartan] | 11.4 mL/min |
| CCC(CC)O[C@@H]1C=C(C(=O)O)C[C@H](N)[C@H]1NC(C)=O [Oseltamivir carboxylate] | 231.7 mL/min |
| Nc1nc2c(ncn2CCC(CO)CO)c(=O)[nH]1 [Penciclovir] | 439.6 mL/min |
| Cc1cccc(C)c1NC(=O)CC12CCCN1CCC2 [Pilsicainide] | 234.7 mL/min |
| CC(C)NCC(O)COc1cccc2[nH]ccc12 (stereo not shown) [Pindolol] | 210.9 mL/min |
| CC[C@H](C)C(=O)O[C@H]1C[C@H](O)C=C2C=C[C@H](C)[C@H](CC[C@@H](O)C[C@@H](O)CC(=O)O)[C@H]21 [Pravastatin] | 414.6 mL/min |
| CC(CN1c2ccccc2Sc2ccccc21)N(C)C (stereo not shown) [Promethazine] | 5.9 mL/min |
| NC(=O)c1cnccn1 [Pyrazinamide] | 2.0 mL/min |
| Cc1nnc(C(=O)NC(C)(C)c2nc(C(=O)NCc3ccc(F)cc3)c(O)c(=O)n2C)o1 [Raltegravir] | 55.0 mL/min |
| CCN1CCC[C@H]1CNC(=O)c1c(OC)ccc(Br)c1OC [Remoxipride] | 35.6 mL/min |
| Oc1ccc(/C=C/c2cc(O)cc(O)c2)cc1 [Resveratrol] | 16.6 mL/min |
| CO[C@H]1/C=C/O[C@@]2(C)Oc3c(C)c(O)c4c(c3C2=O)C2=NC3(CCN(CC(C)C)CC3)NC2=C(NC(=O)/C(C)=C\C=C\[C@H](C)[C@H](O)[C@@H](C)[C@@H](O)[C@@H](C)[C@H](OC(C)=O)[C@@H]1C)C4=O [Rifabutin] | 58.4 mL/min |
| CO[C@H]1/C=C/O[C@@]2(C)Oc3c(C)c(O)c4c(O)c(c(/C=N/N5CCN(C)CC5)c(O)c4c3C2=O)NC(=O)/C(C)=C\C=C\[C@H](C)[C@H](O)[C@@H](C)[C@@H](O)[C@@H](C)[C@H](OC(C)=O)[C@@H]1C [Rifampin] | 18.7 mL/min |
| O=C(NC[C@H]1CN(c2ccc(N3CCOCC3=O)cc2)C(=O)O1)c1ccc(Cl)s1 [Rivaroxaban] | 49.8 mL/min |
| CC(C)c1nc(N(C)S(C)(=O)=O)nc(-c2ccc(F)cc2)c1/C=C/[C@@H](O)C[C@@H](O)CC(=O)O [Rosuvastatin] | 212.5 mL/min |
| CN1CCN(c2c(F)cc3c(=O)c(C(=O)O)cn4c3c2SCC4)CC1 [Rufloxacin] | 16.8 mL/min |
| CC(C)(C)NCC(O)c1ccc(O)c(CO)c1 (stereo not shown) [Salbutamol] | 289.9 mL/min |
